In patent US9169260B2 (MERCK SHARP & DOHME CORP., priority 2011, dated 2015) one finds IC50 data, which are given here for 30 molecules.

A value given as a limit tells only on which side of the number the result lay.

Sequence of GST tagged IRAK-4 (Q9NWZ3 whole entry): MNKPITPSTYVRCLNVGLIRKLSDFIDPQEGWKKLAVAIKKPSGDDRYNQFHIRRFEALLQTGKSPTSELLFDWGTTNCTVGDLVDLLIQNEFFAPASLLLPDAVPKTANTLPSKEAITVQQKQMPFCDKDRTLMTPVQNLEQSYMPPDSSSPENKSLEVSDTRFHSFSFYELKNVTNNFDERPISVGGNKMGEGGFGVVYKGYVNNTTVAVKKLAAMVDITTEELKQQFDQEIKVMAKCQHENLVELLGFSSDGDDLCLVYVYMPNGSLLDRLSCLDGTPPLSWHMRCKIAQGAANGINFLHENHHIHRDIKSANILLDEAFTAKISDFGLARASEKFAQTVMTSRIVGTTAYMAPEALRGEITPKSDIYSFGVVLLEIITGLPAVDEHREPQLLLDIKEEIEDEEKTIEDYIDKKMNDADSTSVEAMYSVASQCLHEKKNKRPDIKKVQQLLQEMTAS

One assay addresses GST tagged IRAK-4 (Homo sapiens (Human), UniProt Q9NWZ3). The assay is described as follows: IRAK-4 Kinase Assay (IMAP fluorescence polarization). In kind it is biochemical. Particulars: 100 μM ATP, 30 minutes at 25° C. Put shortly:
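Activity was read by IMAP fluorescence polarization, where phosphopeptide binding to M(III) nanoparticles raises FP. The 30-minute, 25° C reaction used 100 μM ATP, 100 nM RP7030 substrate and 0.5 nM GST-IRAK-4 in pH 7.2 Tris buffer with MgCl2, DTT and Tween 20.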
For `Cc1ccc(-n2nc(C3CCN(S(=O)(=O)C(C)C)CC3)cc2NC(=O)c2cnn3cccnc23)cc1` [Example 368, N-[3-{1-[(1-methylethyl)sulfonyl]piperidin-4-yl}-1-(4-methylphenyl)-1H-pyrazol-5-yl]pyrazolo[1,5-a]pyrimidine-3-carboxamide], the IC50 is under 0.1 µM.
The same measure, in the same setting: next, `O=C(Nc1cc(C2CNC2)nn1-c1ccc(C2CC2)cc1F)c1cnn2cccnc12` [Example 87, N-(3-(azetidin-3-yl)-1-(4-cyclopropyl-2-fluorophenyl)-1H-pyrazol-5-yl)pyrazolo[1,5-a]pyrimidine-3-carboxamide]: under 0.1 µM; `COc1ccc(-n2nc(C3CCN(C(C)C)CC3)cc2NC(=O)c2cnn3cccnc23)c(F)c1` [Example 62, N-(1-(2-fluoro-4-methoxyphenyl)-3-(1-isopropylpiperidin-4-yl)-1H-pyrazol-5-yl)pyrazolo[1,5-a]pyrimidine-3-carboxamide]: under 0.1 µM; `Cc1ccc(-n2nc(-c3ccc(S(=O)(=O)N4CCN(C)CC4)cc3)cc2NC(=O)c2cnn3cccnc23)nc1` [Example 178, N-(3-(4-((4-methylpiperazin-1-yl)sulfonyl)phenyl)-1-(5-methylpyridin-2-yl)-1H-pyrazol-5-yl)pyrazolo[1,5-a]pyrimidine-3-carboxamide]: under 0.1 µM.
On the same count and under the same terms, next, `Cc1ccc(-n2nc(-c3ccc(S(=O)(=O)N4CCC4)cc3)cc2NC(=O)c2cnn3cccnc23)cc1` [Example 344, N-{3-[4-(azetidin-1-ylsulfonyl)phenyl]-1-(4-methylphenyl)-1H-pyrazol-5-yl}pyrazolo[1,5-a]pyrimidine-3-carboxamide]: under 0.1 µM; `Cc1ccc(-n2nc(C3CCN(S(=O)(=O)c4sc(C)nc4C)CC3)cc2NC(=O)c2cnn3cccnc23)cc1` [Example 364, N-[3-{1-[(2,4-dimethyl-1,3-thiazol-5-yl)sulfonyl]piperidin-4-yl}-1-(4-methylphenyl)-1H-pyrazol-5-yl]pyrazolo[1,5-a]pyrimidine-3-carboxamide]: under 0.1 µM; `Cc1ccc(-n2nc(C3CCN(C4CC(N(C)C)C4)CC3)cc2NC(=O)c2cnn3cccnc23)nc1` (stereo not drawn) [Example 269, N-[3-{1-[3-(dimethylamino)cyclobutyl]piperidin-4-yl}-1-(5-methylpyridin-2-yl)-1H-pyrazol-5-yl]pyrazolo[1,5-a]pyrimidine-3-carboxamide]: under 0.1 µM.
`Cc1ccc(-n2nc(-c3ccc(S(C)(=O)=O)cc3)cc2NC(=O)c2cnn3cccnc23)nc1` [Example 179, N-(1-(5-methylpyridin-2-yl)-3-(4-(methylsulfonyl)phenyl)-1H-pyrazol-5-yl)pyrazolo[1,5-a]pyrimidine-3-carboxamide] displayed an IC50 of under 0.1 µM.
The same measure, in the same setting: next, `Cc1ccc(-n2nc(C3CCN(CC4CC4)CC3)cc2NC(=O)c2cnn3cccnc23)cc1` [Example 221, N-{3-[1-(cyclopropylmethyl)piperidin-4-yl]-1-(4-methylphenyl)-1H-pyrazol-5-yl}pyrazolo[1,5-a]pyrimidine-3-carboxamide]: under 0.1 µM; `CN1CCC(c2cc(NC(=O)c3cnn4cccnc34)n(-c3ccc(C4CC4)cc3F)n2)CC1` [Example 398, N-(1-(4-cyclopropyl-2-fluorophenyl)-3-(1-methylpiperidin-4-yl)-1H-pyrazol-5-yl)pyrazolo[1,5-a]pyrimidine-3-carboxamide]: under 0.1 µM; `CC(C)N1CC(c2cc(NC(=O)c3cnn4cccnc34)n(-c3ccc(C4CC4)cc3F)n2)C1` [Example 88, N-(1-(4-cyclopropyl-2-fluorophenyl)-3-(1-isopropylazetidin-3-yl)-1H-pyrazol-5-yl)pyrazolo[1,5-a]pyrimidine-3-carboxamide]: under 0.1 µM.
On the same count and under the same terms, next, “N3-(3-(1-(methylsulfonyl)piperidin-4-yl)-1-(p-tolyl)-1H-pyrazol-5-yl)pyrazolo[1,5-a]pyrimidine-3,6-dicarboxamide [Example 192]”: under 0.1 µM.
The same measure, in the same setting: next, `CN1CCN(c2cc(NC(=O)c3cnn4cccnc34)n(-c3ccc(C4CC4)cn3)n2)CC1` [Example 201, N-(1-(5-cyclopropylpyridin-2-yl)-3-(4-methylpiperazin-1-yl)-1H-pyrazol-5-yl)pyrazolo[1,5-a]pyrimidine-3-carboxamide]: under 0.1 µM; `CCS(=O)(=O)c1ccc(-c2cc(NC(=O)c3cnn4cccnc34)n(-c3ccc(C)cc3)n2)cc1` [Example 352, N-{3-[4-(ethylsulfonyl)phenyl]-1-(4-methylphenyl)-1H-pyrazol-5-yl}pyrazolo[1,5-a]pyrimidine-3-carboxamide]: under 0.1 µM.

The assay is the same for the next values; noted with them: 100 μM ATP, 30 minutes at 25° C.; μM.
On to `CCOC(=O)N1CC(N2CCC(c3cc(NC(=O)c4cnn5cccnc45)n(-c4ccc(C)cc4)n3)CC2)C1` [Example 239, ethyl 3-(4-{1-(4-methylphenyl)-5-[(pyrazolo[1,5-a]pyrimidin-3-ylcarbonyl)amino]-1H-pyrazol-3-yl}piperidin-1-yl)azetidine-1-carboxylate], for which the IC50 is under 1 µM.
Same read-out and setting: next, `Cc1ccc(-n2nc(C3CCN(Cc4ccncc4)CC3)cc2NC(=O)c2cnn3cccnc23)cc1` [Example 224, N-(3-(1-(pyridin-4-ylmethyl)piperidin-4-yl)-1-(p-tolyl)-1H-pyrazol-5-yl)pyrazolo[1,5-a]pyrimidine-3-carboxamide]: under 1 µM; `O=C(Nc1cc(C2CCNCC2)nn1-c1cc(F)cc(F)c1)c1cnn2cccnc12` [Example 67, N-(1-(3,5-difluorophenyl)-3-(piperidin-4-yl)-1H-pyrazol-5-yl)pyrazolo[1,5-a]pyrimidine-3-carboxamide]: over 1 µM; `COc1ccc(S(=O)(=O)N2CCC(c3cc(NC(=O)c4cnn5cccnc45)n(-c4ccc(C)cc4)n3)CC2)cn1` [Example 389, N-[3-{1-[(6-methoxypyridin-3-yl)sulfonyl]piperidin-4-yl}-1-(4-methylphenyl)-1H-pyrazol-5-yl]pyrazolo[1,5-a]pyrimidine-3-carboxamide]: under 1 µM.
As for `Cc1ccc(-n2nc(C3CCN(S(=O)(=O)Cc4ccncc4)CC3)cc2NC(=O)c2cnn3cccnc23)cc1` [Example 358, N-[1-(4-methylphenyl)-3-{1-[(pyridin-4-ylmethyl)sulfonyl]piperidin-4-yl}-1H-pyrazol-5-yl]pyrazolo[1,5-a]pyrimidine-3-carboxamide], the IC50 is under 1 µM.
The same measure, in the same setting: next, `Cc1ccc(-n2nc(C3CN(Cc4ccccn4)C3)cc2NC(=O)c2cnn3cccnc23)cc1` [Example 308, N-{1-(4-methylphenyl)-3-[1-(pyridin-2-ylmethyl)azetidin-3-yl]-1H-pyrazol-5-yl}pyrazolo[1,5-a]pyrimidine-3-carboxamide]: under 1 µM; `Cc1ccc(-n2nc(C3CCN(S(=O)(=O)c4ccc5ccccc5c4)CC3)cc2NC(=O)c2cnn3cccnc23)cc1` [Example 377, N-{1-(4-methylphenyl)-3-[1-(naphthalen-2-ylsulfonyl)piperidin-4-yl]-1H-pyrazol-5-yl}pyrazolo[1,5-a]pyrimidine-3-carboxamide]: over 1 µM; `Cc1ccc(-n2nc(C3CN(S(=O)(=O)C4CC4)C3)cc2NC(=O)c2cnn3cccnc23)cc1` [Example 84, N-(3-(1-(cyclopropylsulfonyl)azetidin-3-yl)-1-(p-tolyl)-1H-pyrazol-5-yl)pyrazolo[1,5-a]pyrimidine-3-carboxamide]: under 1 µM.
Still for that read-out and setting: next, `O=C(Nc1cc(C2CCN(S(=O)(=O)C3CC3)CC2)nn1-c1ccc(F)cc1)c1cnn2cccnc12` [Example 22, N-(3-(1-(cyclopropylsulfonyl)piperidin-4-yl)-1-(4-fluorophenyl)-1H-pyrazol-5-yl)pyrazolo[1,5-a]pyrimidine-3-carboxamide]: under 1 µM; `COC(=O)N1CC(N2CCC(c3cc(NC(=O)c4cnn5cccnc45)n(-c4ccc(C)cc4)n3)CC2)C1` [Example 238, methyl 3-(4-{1′-(4-methylphenyl)-5-[(pyrazolo[1,5-a]pyrimidin-3-ylcarbonyl)amino]-1H-pyrazol-3-yl}piperidin-1-yl)azetidine-1-carboxylate]: under 1 µM; `O=C(Nc1cc(C2CCNCC2)nn1-c1ccc(C(F)(F)F)cc1)c1cnn2cccnc12` [Example 11, N-(3-(piperidin-4-yl)-1-(4-(trifluoromethyl)phenyl)-1H-pyrazol-5-yl)pyrazolo[1,5-a]pyrimidine-3-carboxamide]: under 1 µM.
On the same count and under the same terms, next, `Cc1ccc(-n2nc(C3=CC(=O)N(C)CC3)cc2NC(=O)c2cnn3cccnc23)cc1` [Example 354, N-[3-(1-methyl-6-oxo-1,2,3,6-tetrahydropyridin-4-yl)-1-(4-methylphenyl)-1H-pyrazol-5-yl]pyrazolo[1,5-a]pyrimidine-3-carboxamide]: under 1 µM.
Consider `Cc1ccc(-n2nc(C3CCN(S(=O)(=O)CCC(F)(F)F)CC3)cc2NC(=O)c2cnn3cccnc23)cc1` [Example 363, N-[1-(4-methylphenyl)-3-{1-[(3,3,3-trifluoropropyl)sulfonyl]piperidin-4-yl}-1H-pyrazol-5-yl]pyrazolo[1,5-a]pyrimidine-3-carboxamide], for which the IC50 is under 1 µM.
Same read-out and setting: next, `O=C(Nc1cc(C2CCNCC2)nn1-c1ccc(OC(F)(F)F)cc1)c1cnn2cccnc12` [Example 13, N-(3-(piperidin-4-yl)-1-(4-(trifluoromethoxy)phenyl)-1H-pyrazol-5-yl)pyrazolo[1,5-a]pyrimidine-3-carboxamide]: under 1 µM; `Cc1ccc(-n2nc(C3CCN(S(=O)(=O)c4c(Cl)cccc4Cl)CC3)cc2NC(=O)c2cnn3cccnc23)cc1` [Example 390, N-[3-{1-[(2,6-dichlorophenyl)sulfonyl]piperidin-4-yl}-1-(4-methylphenyl)-1H-pyrazol-5-yl]pyrazolo[1,5-a]pyrimidine-3-carboxamide]: over 1 µM; `COc1ccc(-c2cc(NC(=O)c3cnn4cccnc34)n(-c3ccc(C)cc3)n2)cn1` [Example 124, N-(3-(6-methoxypyridin-3-yl)-1-(p-tolyl)-1H-pyrazol-5-yl)pyrazolo[1,5-a]pyrimidine-3-carboxamide]: under 1 µM.

For orientation: IC50 means the concentration that gives 50% inhibition.
